Values joined by “and” are separate entries in the source; they are usually repeats but may differ in a detail not shown here. Equal values may be shown once.
Tests used:
AMPK [1] = biological target: T1, AMPK (Homo sapiens, UniProt Q13131); test: AMPK and ACC phosphorylation by Western blot in PC-3 cells; assay type: cell-based; conditions: 25 µM, 1 hour; for Thr172 phosphorylation of AMPK (pAMPK/AMPK): compared to controls
T1 construct: endogenous in cells; host or cells: PC-3, DU145, LNCaP
Text: To investigate the effect of the compounds on AMPK activity at cellular level, compounds 8a-c and 9a-b were selected to perform AMPK phosphorylation assays in human prostate cancer cell lines. We use the PC-3 cell line as it is androgen-resistant and represents the advanced and aggressive stage of prostate cancer. […] AMPK inhibits lipogenic pathway through phosphorylation of its well-known substrate acetyl-CoA carboxylase (ACC). To confirm the modulation of AMPK activity in prostate cells by the compounds, we determined levels of phosphorylated ACC in 2-oxindole fluorinated derivatives-treated cells. […] It is worthy to note that the highest ACC phosphorylation was obtained with compound 8c denoting a powerful activity of this compound in PC-3 cells.
(§1) Figure 2 Effect of 2-oxindole fluorinated derivatives on AMPK activity in prostate cancer cells. (A) PC-3, DU145 and LNCaP cells were treated with 25 µM of the selected 2-oxindole fluorinated derivatives for 1 hour. Levels of the phosphorylated AMPK (pAMPK), phosphorylated ACC (pACC) and their total forms were determined by Western blot. Upper panel, a representative Western blot of three different experiments. β-tubulin (β-Tub) serves as a loading control. […] Lower panels, densitometric analyses of bands represented as the mean of the ratio pAMPK/AMPK or pACC/ACC ± SD of three different experiments. *p < 0.05 compared with the controls by one-way ANOVA followed by Fisher’s LSD test; ^#p < 0.05 compared with 2-oxindole fluorinated derivates or with the AMPK activators AMP or A769662 by one-way ANOVA followed by Tukey test.
(§2) Human prostate cancer epithelial PC-3, DU145 and LNCaP and human prostate normal RWPE-1 cells were purchased from American Type Culture Collection (ATCC CRL-1435 CRL-1740 and CRL 11609 respectively) (Rockville, MD, USA). The human prostate normal PNT2 cell line was purchased to ECACC (European Collection of Cell cultures, Salisbury, SP4 0JG, UK). Cells were routinely grown in RPMI 1640 medium supplemented with 100 IU/ml penicillin G sodium, 100 µg/ml streptomycin sulfate, 0.25 µg/ml amphotericin B (Invitrogen, Paisley, UK) and 10% fetal calf serum. Cells were used at passages between 10–20. For treatment experiments, cells were plated and grown over night, the medium was then replaced with serum-free RPMI 1640 for 24 hours and then incubated with different doses of the compounds for the indicated times.
Cells were lysed in Lysis buffer (50 mM Tris pH 7.4, 0.8 M NaCl, 5 mM MgCl2, 0.1% Triton X-100) containing Protease Inhibitor and Phosphatase inhibitor Cocktails (Roche, Basel, Switzerland). Protein concentrations were measured by BioRad™ protein assay kit (Richmond, CA, USA). Equal amount of protein (20 μg) from each sample was separated on 8% SDS–PAGE gels and transferred to PVDF membranes (BioRad). The membranes were blocked with blocking buffer (1× TBS, 0.1% Tween 20 with 5% w/v fat-free dry milk), washed and incubated with primary antibodies at 4 °C for 12 h. The membranes were subsequently washed with TBS-T (1× TBS and 0.1% Tween 20) and incubated with horseradish peroxidase-conjugated anti-mouse or anti-rabbit IgG antibodies (Sigma, St Louis, MO, USA) at room temperature for 1 h. The immune complex was visualized with an ECL system (Cell Signaling Technology). Films were analyzed by densitometry. The anti-pAMPKα1-thr172, pACC-ser79, pP53, P21, pRaptor and the antibodies against the corresponding total forms were obtained from Cell Signaling Technology (Danvers, MA, USA). The anti-caspase 3 and anti-procaspase 3 were from Santa Cruz Biotechnology (Dallas, Texas, USA). The anti-HIF1A was from Novus Biologicals LLC (Littleton, CO, USA). The anti-Cyclin D1 antibody was obtained from ThermoFisher (Alcobendas, Madrid, Spain). All the other chemicals were obtained from Sigma (St. Louis, MO, USA).

AMPK [2] = test: AMPK and ACC phosphorylation by Western blot in LNCaP cells; assay type: cell-based, human; conditions: 25 µM, 1 hour
Description: as §1
Similar results were obtained although AMPK stimulation by compound 8c was not so strong (Fig. 2A). […]
Cells were lysed in Lysis buffer (50 mM Tris pH 7.4, 0.8 M NaCl, 5 mM MgCl2, 0.1% Triton X-100) containing Protease Inhibitor and Phosphatase inhibitor Cocktails (Roche, Basel, Switzerland). Protein concentrations were measured by BioRad™ protein assay kit (Richmond, CA, USA). […] Films were analyzed by densitometry. […]

PC-3 cells = test: Cell viability by MTT assay, PC-3; assay type: cell-based, human; conditions: PC-3, 50 μM
Description: (§3) Figure 3 Comparison of the effect of 2-oxindole fluorinated derivatives on the proliferation of human prostate cancer cells. (A) Normal (PTN2 and RWPE-1) and cancer (PC3,DU145 and LNCaP) prostate cells were treated with different doses of the compounds for 24 hours and cell viability was monitored by MTT assay. […] (C) PC-3, DU145 and LNCaP cells were treated with 25 µM of compound 8c for different times. Values were normalized with the control and represent the mean ± SD of at least three independent experiments. *p < 0.05 and **p < 0.01 compared to control by the Student’s - test.
as §2
(§4) Cell viability was determined by 3-(4,5-dimethylthiazol-2-yl)-2,5-diphenyltetrazolium bromide (MTT) (Sigma-Aldrich) method. In brief, a total of 5000 cells/well were seeded into 12-well plate in a final volume of 1 mL. After treatments, 20 µl MTT solution (5 mg/ml in PBS) was added to the medium and cells were incubated at 37 °C for 4 h. Then, the supernatant was discarded and isopropanol was added to dissolve the formazan crystals. Treatments were carried out in triplicate. The optical density in each well was evaluated by measurement of absorbance at 490 and 650 nm using a microplate reader (ELX 800 Bio-Tek Intruments, INC). IC50 values were calculated using GraphPad Prism vs 6.0 (GraphPad Software, Inc, La Jolla, CA, USA). Cell viability was also determined by counting viable and dead cells by Trypan blue staining. Trypan blue positive and negative cells were counted using a Countess^TM automated cell counter (Invitrogen, Carlsbad, CA, USA). Results were expressed in relation to total number of cells counted.

DU145 cells = test: Cell viability by MTT assay, DU145; assay type: cell-based, human; conditions: DU145, 50 μM
Description: as §3, §2, §4

AMPK [3] = test: Characterization of AMPK activation by Western blot in PC-3 and LNCaP cells (Dorsomorphin, siRNA); assay type: cell-based, human; conditions: PC-3 and LNCaP cells, 5 μM Dorsomorphin + 25 µM 8c, 1 h and 24 h
Description: To further confirm the compound 8c-induced activation of AMPK, PC-3 and LNCaP cells were incubated with the compound for 1 h and 24 hours in the presence of the AMPK inhibitor Dorsomorphin. […] Accordingly, ACC phosphorylation was increased at 1 h and 24 h and prevented by Dorsomorphin in both cell lines. AMPK inhibits mTORC1 through phosphorylation of Raptor on two well-conserved serine residues (ser722 and ser792) inducing cell-cycle arrest in response to an energy stress. To further support the 8c-induced AMPK activation, we determined Raptor phosphorylation on Ser792 in prostate cells.
Figure 5 AMPK activation by compound 8c in prostate cancer cells. (A) PC-3 and LNCaP cells were treated with vehicle, 25 µM compound 8c, 25 µM compound 8c + 5 μM Dorsomorphin (8c + D) or 5 μM Dorsomorphin (D), for 1 hour or 24 hours and levels of the phosphorylated AMPK (pAMPK), phosphorylated ACC (pACC), phosphorylated Raptor (pRaptor) forms and HIF1α were determined by Western blot. Upper panel, representative Western blot of three different experiments. β-tubulin (β-Tub) serves as a loading control. Lower panel, densitometric analyses of bands represented as the mean of the ratio pAMPK/AMPK or pACC/ACC. (B) Cell viability monitored by MTT assay in PC-3 and LNCaP cells treated with vehicle, 25 µM and 50 μM compound 8c alone or in the presence of 5 μM Dorsomorphin or transfected with control siRNA (siC) or α1AMPK-selective siRNA (siAMPK). (C) LNCaP cells were treated with vehicle, 25 µM compound 8c, 25 µM compound 8c + 5 μM Dorsomorphin (8c + D) or 5 μM Dorsomorphin (D), for 24 hours and levels of Androgen Receptor (AR), Prostate specific antigen (PSA) and Prostate specific membrane antigen (PSMA) were determined by Western blot.Values were normalized with the control and represent the mean ± SD of at least three independent experiments. *p < 0.05 and **p < 0.01 compared to control and ^#p < 0.05 and ^##p < 0.01 compared with 8c-treated group by the Student’s t-test.
AMPK is a heterotrimeric protein composed by catalytic (α) and regulatory (β and γ) subunits. In mammals, different isoforms of α, β and γ subunits can associate to produce up to 12 AMPK different combinations. […]
Figure 6 Phosphorylation of AMPK and ACC in prostate cells transfected with selective AMPKα1 or AMPKα2 siRNA. […] Levels of the phosphorylated AMPK (pAMPK), phosphorylated ACC (pACC) and their total forms were determined by Western blot. […]
Cells were lysed in Lysis buffer (50 mM Tris pH 7.4, 0.8 M NaCl, 5 mM MgCl2, 0.1% Triton X-100) containing Protease Inhibitor and Phosphatase inhibitor Cocktails (Roche, Basel, Switzerland). Protein concentrations were measured by BioRad™ protein assay kit (Richmond, CA, USA). […]

[4] = system: PTN2, RWPE-1, PC3, DU145 and LNCaP prostate cells; test: Cell viability by MTT assay, statements for the five cell lines together; assay type: cell-based, human; conditions: 1–100 µM, dose-dependent, 24 hours
LNCaP cells = test: Cell viability by MTT assay, LNCaP; assay type: cell-based, human; conditions: 50 μM
Description: as §3, §2
as §4, with “In brief, a total of 5000 cells/well were seeded into 12-well plate in a final volume of 1 mL. After treatments, 20 µl MTT solution (5 mg/ml in PBS) was added to the medium and cells were incubated at 37 °C for 4 h. Then, the supernatant was discarded and isopropanol was added to dissolve the formazan crystals. Treatments were carried out in triplicate.” left out

PNT2 cells = test: Cell viability by MTT assay, PNT2 normal prostate cells; assay type: cell-based, human; conditions: PNT2, 50 μM
Description: as §3, §2
as §4, with “In brief, a total of 5000 cells/well were seeded into 12-well plate in a final volume of 1 mL. After treatments, 20 µl MTT solution (5 mg/ml in PBS) was added to the medium and cells were incubated at 37 °C for 4 h. Then, the supernatant was discarded and isopropanol was added to dissolve the formazan crystals. Treatments were carried out in triplicate.” left out

RWPE-1 cells = test: Cell viability by MTT assay, RWPE-1 normal prostate cells; assay type: cell-based, human; conditions: RWPE-1, 50 μM
Description: as §3, §2
as §4, with “In brief, a total of 5000 cells/well were seeded into 12-well plate in a final volume of 1 mL. After treatments, 20 µl MTT solution (5 mg/ml in PBS) was added to the medium and cells were incubated at 37 °C for 4 h. Then, the supernatant was discarded and isopropanol was added to dissolve the formazan crystals. Treatments were carried out in triplicate.” left out

T1 sequence (Q13131 whole entry): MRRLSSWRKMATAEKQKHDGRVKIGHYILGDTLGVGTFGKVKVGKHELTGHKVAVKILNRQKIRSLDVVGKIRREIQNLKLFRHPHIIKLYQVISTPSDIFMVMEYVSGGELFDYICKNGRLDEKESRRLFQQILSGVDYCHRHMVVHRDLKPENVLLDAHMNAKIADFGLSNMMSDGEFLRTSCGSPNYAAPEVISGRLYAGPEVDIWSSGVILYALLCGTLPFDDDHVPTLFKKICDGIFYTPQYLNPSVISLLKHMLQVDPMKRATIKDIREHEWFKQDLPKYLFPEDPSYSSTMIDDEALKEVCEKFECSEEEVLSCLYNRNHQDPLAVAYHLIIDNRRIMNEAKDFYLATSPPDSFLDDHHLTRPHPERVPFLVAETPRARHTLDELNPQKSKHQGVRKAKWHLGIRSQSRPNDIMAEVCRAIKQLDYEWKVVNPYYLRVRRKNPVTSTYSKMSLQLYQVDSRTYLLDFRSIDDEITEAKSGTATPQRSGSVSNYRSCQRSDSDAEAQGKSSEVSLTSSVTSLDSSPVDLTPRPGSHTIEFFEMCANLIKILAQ
T1 sequence (Q9Y478 2-270 partner limits assumed): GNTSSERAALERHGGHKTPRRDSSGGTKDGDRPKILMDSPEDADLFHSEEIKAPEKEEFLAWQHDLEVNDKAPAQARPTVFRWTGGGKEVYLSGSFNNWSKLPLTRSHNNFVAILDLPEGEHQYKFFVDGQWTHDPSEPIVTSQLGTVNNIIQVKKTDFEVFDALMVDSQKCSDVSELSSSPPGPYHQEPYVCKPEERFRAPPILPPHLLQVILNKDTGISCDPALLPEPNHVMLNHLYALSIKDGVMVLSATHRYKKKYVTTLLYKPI
T1 sequence (P54619 whole entry partner): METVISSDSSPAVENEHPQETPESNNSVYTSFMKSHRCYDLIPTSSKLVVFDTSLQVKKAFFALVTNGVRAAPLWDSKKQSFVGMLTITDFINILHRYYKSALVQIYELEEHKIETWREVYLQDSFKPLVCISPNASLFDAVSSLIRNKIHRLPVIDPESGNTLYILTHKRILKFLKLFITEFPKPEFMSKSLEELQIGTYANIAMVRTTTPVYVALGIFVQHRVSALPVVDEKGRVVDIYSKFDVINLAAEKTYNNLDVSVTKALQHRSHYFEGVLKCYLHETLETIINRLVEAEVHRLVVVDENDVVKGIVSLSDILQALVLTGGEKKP

Row | SMILES | ACC phosphorylation (pACC/ACC) (AMPK [1]) | Thr172 phosphorylation of AMPK (pAMPK/AMPK) (AMPK [1]) | inhibitory efficacy on cells viability at 50 μM (PC-3 cells) | inhibitory efficacy on cells viability at 50 μM (DU145 cells) | further results
1 | c1cc(-c2cnn3cc(-c4ccc(OCCN5CCCCC5)cc4)cnc23)ccn1 [Dorsomorphin, reference compound] |  |  |  |  | effect on AMPK activation by compound 8c (AMPK [3]): blocked AMPK activation by compound 8c both at 1 h and 24 h
2 | O=C1Nc2ccc(Cl)cc2C1(F)Cc1ccc(N2CCCC2)cc1 (stereo not shown) [Compound 8b, 5-chloro-3-fluoro-3-(4-(pyrrolidin-1-yl)benzyl)indolin-2-one] | inhibited ACC phosphorylation | slightly, although significantly, inhibited AMPK phosphorylation | 3% | 14% | inhibitory efficacy on cells viability at 50 μM (LNCaP cells): 11%; inhibitory efficacy on cells viability at 50 μM (PNT2 cells): 0%; inhibitory efficacy on cells viability at 50 μM (RWPE-1 cells): 17%
3 | O=C1Nc2ccccc2C1(F)Cc1ccc[nH]1 (stereo not shown) [Compound 8a, 3-((1H-pyrrol-2-yl)methyl)-3-fluoroindolin-2-one] | inhibited ACC phosphorylation | slightly, although significantly, inhibited AMPK phosphorylation |  |  | melting point: 143 to 146 °C

The next lines start with results.

Row | ACC phosphorylation (pACC/ACC) (AMPK [1]) | SMILES | Thr172 phosphorylation of AMPK (pAMPK/AMPK) (AMPK [1]) | inhibitory efficacy on cells viability at 50 μM (PC-3 cells) | inhibitory efficacy on cells viability at 50 μM (DU145 cells) | further results
4 | augmented pACC | O=C1N(Cc2ccccc2)c2ccc(Cl)cc2C1(F)Cc1ccc(N2CCCC2)cc1 (stereo not shown) [Compound 9b, 1-benzyl-5-chloro-3-fluoro-3-(4-(pyrrolidin-1-yl)benzyl)indolin-2-one] | weak AMPK activation | 27% and 23% | 14% and 17% | AMPK phosphorylation (pAMPK/AMPK) (AMPK [2]): slightly increases AMPK phosphorylation in PC-3 cells but not in LNCaP cells
5 | inhibited ACC phosphorylation | O=C1N(Cc2ccccc2)c2ccccc2C1(F)Cc1ccc[nH]1 (stereo not shown) [Compound 9a, 3-((1H-pyrrol-2-yl)methyl)-1-benzyl-3-fluoroindolin-2-one] | slightly, although significantly, inhibited AMPK phosphorylation |  |  | inhibition of cell proliferation [4]: effectively inhibited cell proliferation

— article PMC5847527, “Identification of a novel 2-oxindole fluorinated derivative as in vivo antitumor agent for prostate cancer acting via AMPK activation” (Scientific Reports, 2018)
